According to ChEMBL document CHEMBL6120947, “Synthesis and Antiosteoporotic Characterization of Diselenyl Maleimides: Discovery of a Potent Agent for the Treatment of Osteoporosis by Targeting RANKL” (J Med Chem, 2024):
Active and inactive are the calls of the source. The calls are words filed in the database; no cut-off is given here.

What was measured:
MC3T3-E1 = assay: Effect on osteoblast differentiation in mouse MC3T3-E1 cells assessed as change in collagen I mRNA level at 0.5 to 2 uM incubated for 7 days by qRT-PCR analysis; assay type: functional, cell-based; conditions: dose 0.5-2 µM, time 7.0 day
RAW264.7 = assay: Cytotoxicity against mouse RAW264.7 cells assessed as decrease in cell viability at 1 uM incubated for 48 hrs by MTT assay; assay type: toxicity, cell-based; conditions: raw264.7, 48 h
BMDM = assay: Inhibition of osteoclastogenesis in M-CSF/RANKL-induced osteoclast differentiation in C57BL/6J mouse BMDM cells assessed as reduction in p38 phosphorylation at 1 uM measured upto 60 mins by Western blot analysis; assay type: functional, cell-based

## O=C1C([Se]c2ccccc2)=C([Se]c2ccccc2)C(=O)N1Cc1ccccc1
MC3T3-E1
  Activity: No effect
RAW264.7
  Activity: Non-toxic
BMDM
  inhibition: Active
